In ChEMBL document CHEMBL6182871, “Discovery of 4-((quinolin-8-ylthio)methyl)benzamide derivatives as a new class of SARS-CoV-2 nsp13 inhibitors” (Bioorg Med Chem Lett, 2025):

Key:
[1] = target: T1, Replicase polyprotein 1ab (Severe acute respiratory syndrome coronavirus 2, UniProt P0DTD1); test: Inhibition of SARS-CoV-2 nsp13 by FRET assay
[2] = target: T1, Replicase polyprotein 1ab; test: Binding affinity to SARS-CoV-2 nsp13 assessed as dissociation constant by MST assay

Compound	IC50 [1]	Kd [2]
O=C(N/N=C/c1cc([N+](=O)[O-])ccc1Cl)c1ccc(COc2cccc3ccccc23)cc1	> 10000 nM	
O=C(N/N=C/c1cc([N+](=O)[O-])ccc1Cl)c1ccc(CSc2ccnc3ccccc23)cc1	760 nM	
O=C(N/N=C/c1cc([N+](=O)[O-])ccc1Cl)c1ccc(CNc2cccc3ccccc23)cc1	> 10000 nM	
COc1cc(/C=N/NC(=O)c2ccc(CSc3cccc4cccnc34)cc2)ccc1O	9190 nM	
CSc1nnc(SCc2ccc(C(=O)N/N=C/c3cc([N+](=O)[O-])ccc3Cl)cc2)s1	> 10000 nM	
COc1ccc(/C=N/NC(=O)c2ccc(CSc3cccc4cccnc34)cc2)c(O)c1	5440 nM	
O=C(N/N=C/c1ccc(F)nc1)c1ccc(CSc2cccc3cccnc23)cc1	660 nM	
O=C(N/N=C/c1ccc(Cl)nc1)c1ccc(CSc2cccc3cccnc23)cc1	5100 nM	
COc1ccc(/C=N/NC(=O)c2ccc(CSc3cccc4cccnc34)cc2)cc1OC	4970 nM	
O=C(N/N=C/c1cc([N+](=O)[O-])ccc1Cl)c1ccc(CSc2cccc3ccccc23)cc1	> 10000 nM	
O=C(N/N=C/c1cc2c(cc1[N+](=O)[O-])OCO2)c1ccc(CSc2cccc3cccnc23)cc1	430 nM	
O=C(N/N=C/c1cc([N+](=O)[O-])ccc1Cl)c1ccc(CSc2ccccc2Br)cc1	> 10000 nM	
C/C(=N\NC(=O)c1ccc(CSc2cccc3cccnc23)cc1)c1ccc(F)nc1	> 10000 nM	
Cn1cc(/C=N/NC(=O)c2ccc(CSc3cccc4cccnc34)cc2)cn1	26800 nM	46100 nM
O=C(N/N=C/c1cccc(F)c1O)c1ccc(CSc2cccc3cccnc23)cc1	2980 nM	
CC(C)NC(=O)c1ccc(/C=N/NC(=O)c2ccc(CSc3cccc4cccnc34)cc2)cc1	940 nM	
O=C(N/N=C/c1cc(F)c(F)cc1O)c1ccc(CSc2cccc3cccnc23)cc1	2340 nM	
O=C(N/N=C/c1ncccn1)c1ccc(CSc2cccc3cccnc23)cc1	> 10000 nM	
O=C(N/N=C/c1cc(O)c(Br)c(O)c1)c1ccc(CSc2cccc3cccnc23)cc1	2060 nM	
O=C(N/N=C/c1ccc(Br)o1)c1ccc(CSc2cccc3cccnc23)cc1	> 10000 nM	
O=C(N/N=C/c1cccc2ccncc12)c1ccc(CSc2cccc3cccnc23)cc1	4330 nM	
O=C(N/N=C/c1cc2ccncc2[nH]1)c1ccc(CSc2cccc3cccnc23)cc1	> 10000 nM	
O=C(N/N=C/c1ccc(F)cc1)c1ccc(CSc2cccc3cccnc23)cc1	2570 nM	
O=C(N/N=C/c1c(O)ccc2ccccc12)c1ccc(CSc2cccc3cccnc23)cc1	3920 nM	
O=C(N/N=C/c1c(Cl)ccnc1Cl)c1ccc(CSc2cccc3cccnc23)cc1	480 nM	
COc1cc(F)ccc1/C=N/NC(=O)c1ccc(CSc2cccc3cccnc23)cc1	2850 nM	
O=C(N/N=C/c1ccc(F)cc1O)c1ccc(CSc2cccc3cccnc23)cc1	2700 nM	
O=C(N/N=C/c1cc([N+](=O)[O-])ccc1Cl)c1ccc(CSc2cccc3cccnc23)cc1	280 nM	
O=C(N/N=C/c1c(Cl)nc(Cl)nc1Cl)c1ccc(CSc2cccc3cccnc23)cc1	2940 nM	
COc1ccc(/C=N/NC(=O)c2ccc(CSc3cccc4cccnc34)cc2)cc1	960 nM	
